Assay results: US8404643B2, “Metastin derivatives and use thereof” (priority 2005, dated 2013)
Square brackets hold non-standard residues; d marks the D form. Peptide text beside a SMILES is read from it. * marks the point of attachment. Phe(4-Cl) = N[C@@H](Cc1ccc(Cl)cc1)C(=O)O; Pro(4S-NH2) = N[C@@H]1CN[C@H](C(=O)O)C1; Phe(3-F) = N[C@@H](Cc1cccc(F)c1)C(=O)O; Phe(3-Me) = Cc1cccc(C[C@H](N)C(=O)O)c1; Phe(2-F) = N[C@@H](Cc1ccccc1F)C(=O)O; Arg(Me) = CNC(=N)NCCC[C@H](N)C(=O)O; Hyp = O=C(O)[C@@H]1C[C@@H](O)CN1; Aib = CC(C)(N)C(=O)O; Ahx = NCCCCCC(=O)O; Bn = c1ccc(C*)cc1; azaGly = NNC(=O)O

Biological target: T1, hOT7T175 (Homo sapiens, UniProt Q969F8)
T1 construct: expressed in transfected cells
Assay: Assay for intracellular Ca ion level-increasing activity using FLIPR
Format: cell-based
Conditions: hOT7T175/CHO cells, relative to Metastin (1-54)
Method: In accordance with the method described in JPA 2000-312590, the intracellular Ca ion level-increasing activity was measured using FLIPR.
The stable expression cell line hOT7T175 was obtained by transfection of the expression plasmid pAK-rOT175 for animal cells into CHO/dhfr^− cells, using CellPhect Transfection Kit (Amersham Pharmacia Biotech, Inc.). First, 240 μL of Buffer A (attached to CellPhect Transfection Kit) was added to 9.6 μg of plasmid DNA dissolved in 240 μL of distilled water followed by stirring. After the mixture was settled for 10 minutes, 480 μL of Buffer B (attached to CellPhect Transfection Kit) was added to the mixture, which was vigorously stirred to form liposomes containing the DNA. Then, 4×10^5 CHO/dhfr^− cells (obtained from ATCC) were inoculated on a 60 mm Petri dish. After culturing the cells in Ham's F-12 medium (Nissui Seiyaku Co., Ltd.) supplemented with 10% fetal bovine serum (BIO WHITTAKER, Inc.) at 37° C. for 2 days in 5% carbon dioxide gas, […] of the liposomes were dropwise added to the cells on the Petri dish. After culturing the cells at 37° C. for 6 hours in 5% carbon dioxide gas, the cells were washed twice with serum-free Ham's F-12 medium and 3 mL of 15% glycerol was added to the cells on the Petri dish followed by treatment for 2 minutes. The cells were again washed twice with serum-free Ham's F-12 medium followed by incubation in Ham's F-12 medium supplemented with 10% fetal bovine serum at 37° C. for 15 hours in 5% carbon dioxide gas. The cells were dispersed by trypsin treatment to recover from the Petri dish. The recovered cells were inoculated on a 6-well plate in 1.25×10^4 cells/well and incubation was initiated at 37° C. in Dulbecco's modified Eagle medium (DMEM) medium (Nissui Seiyaku Co., Ltd.) containing 10% dialyzed fetal bovine serum (JRH BIOSCIENCES, Inc.) in 5% carbon dioxide gas. The plasmid-transfected CHO transformants grew in the medium but the non-transfected cells gradually died, accordingly the medium was exchanged on Days 1 and 2 after the initiation of incubation to remove the cells died. Approximately 20 colonies of the CHO transformants that kept growing on Days 8 to 10 after the incubation were isolated. From the cells in these colonies, cells showing high reactivity with the ligand peptide metastin (hereinafter merely referred to as hOT7T175/CHO) were selected to provide for the following experiment.
The intracellular Ca ion level-increasing activity of the synthetic peptide in hOT7T175/CHO was determined using FLIPR (Molecular Devices, Inc.).
hOT7T175/CHO was subcultured in DMEM supplemented with 10% dialyzed fetal bovine serum (hereinafter abbreviated as dFBS) (hereinafter referred to as 10% dFBS/DMEM) and provided for the experiment. The hOT7T175/CHO was suspended in 10% dFBS-DMEM in 15×10^4 cells/ml. The suspension was inoculated on a 96-well plate for FLIPR (Black Plate Clear Bottom, Coster, Inc.) at 200 μl/well (3.0×10^4 cells/200 μL/well), followed by incubation at 37° C. overnight in a 5% CO2 incubator (hereinafter referred to as the cell plate). Then, 21 ml of HANKS/HBSS (9.8 g of HANKS, 0.35 g of sodium hydrogencarbonate, 20 ml of 1M HEPES; after adjusting the pH to 7.4 with 1N sodium hydroxide, the mixture was sterilized by filtration), 210 μl of 250 mM Probenecid and 210 μl of fetal bovine serum (FBS) (HANKS/HBSS-Probenecid-FBS) were mixed.
Furthermore, 2 vials of Fluo3-AM (50 μg/vial) were dissolved in 21 μL of dimethylsulfoxide and 21 μL of 20% Pluronic acid. The resulting solution was added to and mixed with 10 ml of the HANKS/HBSS-Probenecid-FBS described above. After the culture medium was removed, the mixture was dispensed onto the cell plate in 100 μl each/well, followed by incubation at 37° C. for an hour in a 5% CO2 incubator (pigment loading). The peptide was dissolved in dimethylsulfoxide in 1×10^−3 M. The peptide solution was diluted with HANKS/HBSS containing 2.5 mM Probenecid, 0.2% BSA and 0.1% CHAPS. […]

T1 sequence (Q969F8 whole entry L364H): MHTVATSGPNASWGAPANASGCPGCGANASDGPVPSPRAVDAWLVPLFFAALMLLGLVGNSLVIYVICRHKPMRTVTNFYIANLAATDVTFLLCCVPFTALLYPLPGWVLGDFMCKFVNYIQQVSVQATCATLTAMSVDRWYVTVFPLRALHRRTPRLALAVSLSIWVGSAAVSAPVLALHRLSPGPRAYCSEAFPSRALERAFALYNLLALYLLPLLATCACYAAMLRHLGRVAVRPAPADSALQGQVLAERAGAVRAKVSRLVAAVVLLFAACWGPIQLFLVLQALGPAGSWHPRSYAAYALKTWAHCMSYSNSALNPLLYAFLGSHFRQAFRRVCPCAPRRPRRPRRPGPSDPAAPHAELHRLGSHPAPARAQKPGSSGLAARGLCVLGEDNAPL

Specific Activity: intracellular Ca ion level-increasing activity [specific activity to Metastin (1-54)]	Compound
0.7	CNC(=N)NCCC[C@H](NC(=O)[C@H](CC(C)C)NC(=O)NNC(=O)[C@H](Cc1cccc(C)c1)NC(=O)[C@@H](NC(=O)[C@H](CC(N)=O)NC(=O)[C@@H]1C[C@@H](O)CN1C(=O)[C@@H](Cc1ccc(O)cc1)NC(C)=O)[C@@H](C)O)C(=O)N[C@@H](Cc1c[nH]c2ccccc12)C(N)=O [Compound No. 872, Ac-D-Tyr-Hyp-Asn-Thr-Phe(3Me)-AzaGly-Leu-Arg(Me)-Trp-NH2] (Ac-[dY][Hyp]NT[Phe(3-Me)][azaGly]L[Arg(Me)]W-NH2)
2.6	CNC(=N)NCCC[C@H](NC(=O)[C@H](CC(C)C)NC(=O)NNC(=O)[C@H](Cc1ccc(Cl)cc1)NC(=O)[C@@H](NC(=O)[C@H](CC(N)=O)NC(=O)C(C)(C)NC(=O)[C@@H](Cc1ccc(O)cc1)NC(C)=O)[C@@H](C)O)C(=O)N[C@@H](Cc1c[nH]c2ccccc12)C(N)=O [Compound No. 770, Ac-D-Tyr-Aib-Asn-Thr-Phe(4Cl)-AzaGly-Leu-Arg(Me)-Trp-NH2] (Ac-[dY][Aib]NT[Phe(4-Cl)][azaGly]L[Arg(Me)]W-NH2)
3.0	CNC(=N)NCCC[C@H](NC(=O)[C@H](CC(C)C)NC(=O)NNC(=O)[C@H](Cc1ccccc1)NC(=O)[C@@H](NC(=O)[C@H](CC(N)=O)NC(=O)[C@H](CCCCN)NC(=O)[C@@H](Cc1ccc(O)cc1)NC(C)=O)[C@@H](C)O)C(=O)N[C@@H](Cc1c[nH]c2ccccc12)C(N)=O [Compound No. 745, Ac-D-Tyr-Lys-Asn-Thr-Phe-AzaGly-Leu-Arg(Me)-Trp-NH2] (Ac-[dY]KNTF[azaGly]L[Arg(Me)]W-NH2)
1.1	CNC(=N)NCCC[C@H](NC(=O)[C@H](CC(C)C)NC(=O)NNC(=O)[C@H](Cc1ccccc1)NC(=O)[C@@H](NC(=O)[C@H](Cc1cnc[nH]1)NC(=O)[C@@H]1C[C@@H](O)CN1C(=O)[C@@H](Cc1ccc(O)cc1)NC(C)=O)[C@@H](C)O)C(=O)N[C@@H](Cc1c[nH]c2ccccc12)C(N)=O [Compound No. 816, Ac-D-Tyr-Hyp-His-Thr-Phe-AzaGly-Leu-Arg(Me)-Trp-NH2] (Ac-[dY][Hyp]HTF[azaGly]L[Arg(Me)]W-NH2)
1.3	CNC(=N)NCCC[C@H](NC(=O)[C@H](CC(C)C)NC(=O)NNC(=O)[C@H](Cc1ccccc1)NC(=O)[C@@H](NC(=O)[C@H](CC(N)=O)NC(=O)[C@@H](NC(=O)[C@@H](Cc1ccc(O)cc1)NC(C)=O)[C@@H](C)O)[C@@H](C)O)C(=O)N[C@@H](Cc1c[nH]c2ccccc12)C(N)=O [Compound No. 772, Ac-D-Tyr-Thr-Asn-Thr-Phe-AzaGly-Leu-Arg(Me)-Trp-NH2] (Ac-[dY]TNTF[azaGly]L[Arg(Me)]W-NH2)
1.8	CNC(=N)NCCC[C@H](NC(=O)[C@H](CC(C)C)NC(=O)NNC(=O)[C@H](Cc1ccc(Cl)cc1)NC(=O)[C@@H](NC(=O)[C@H](CC(N)=O)NC(=O)[C@H](CCCCN)NC(=O)[C@@H](Cc1ccc(O)cc1)NC(C)=O)[C@@H](C)O)C(=O)N[C@@H](Cc1c[nH]c2ccccc12)C(N)=O [Compound No. 758, Ac-D-Tyr-Lys-Asn-Thr-Phe(4Cl)-AzaGly-Leu-Arg(Me)-Trp-NH2] (Ac-[dY]KNT[Phe(4-Cl)][azaGly]L[Arg(Me)]W-NH2)
2.3	CNC(=N)NCCC[C@H](NC(=O)[C@H](CC(C)C)NC(=O)NNC(=O)[C@H](Cc1ccccc1)NC(=O)[C@@H](NC(=O)[C@H](CC(N)=O)NC(=O)[C@@H]1NCCN1C(=O)[C@@H](Cc1ccc(O)cc1)NC(C)=O)[C@@H](C)O)C(=O)N[C@@H](Cc1c[nH]c2ccccc12)C(N)=O [Compound No. 734, Ac-D-Tyr-Izc-Asn-Thr-Phe-AzaGly-Leu-Arg(Me)-Trp-NH2]
1.5	CNC(=N)NCCC[C@H](NC(=O)[C@H](CC(C)C)NC(=O)NNC(=O)[C@H](Cc1ccc(Cl)cc1)NC(=O)[C@@H](NC(=O)[C@H](CC(N)=O)NC(=O)CNC(=O)[C@@H](Cc1ccc(O)cc1)NC(C)=O)[C@@H](C)O)C(=O)N[C@@H](Cc1c[nH]c2ccccc12)C(N)=O [Compound No. 769, Ac-D-Tyr-Gly-Asn-Thr-Phe(4Cl)-AzaGly-Leu-Arg(Me)-Trp-NH2] (Ac-[dY]GNT[Phe(4-Cl)][azaGly]L[Arg(Me)]W-NH2)
1.0	CNC(=N)NCCC[C@H](NC(=O)[C@H](CC(C)C)NC(=O)NNC(=O)[C@H](Cc1ccccc1)NC(=O)[C@@H](NC(=O)[C@H](CC(N)=O)NC(=O)[C@@H]1C[C@@H](OCc2ccccc2)CN1C(=O)[C@@H](Cc1ccc(O)cc1)NC(C)=O)[C@@H](C)O)C(=O)N[C@@H](Cc1c[nH]c2ccccc12)C(N)=O [Compound No. 781, Ac-D-Tyr-Hyp(Bzl)-Asn-Thr-Phe-AzaGly-Leu-Arg(Me)-Trp-NH2] (Ac-[dY][Hyp](Bn)NTF[azaGly]L[Arg(Me)]W-NH2)
2.1	CNC(=N)NCCC[C@H](NC(=O)[C@H](CC(C)C)NC(=O)NNC(=O)[C@H](Cc1ccccc1)NC(=O)[C@@H](NC(=O)[C@H](CC(N)=O)NC(=O)[C@@H]1C[C@H](N)CN1C(=O)[C@@H](Cc1ccc(O)cc1)NC(C)=O)[C@@H](C)O)C(=O)N[C@@H](Cc1c[nH]c2ccccc12)C(N)=O [Compound No. 780, Ac-D-Tyr-Pro(4NH2)-Asn-Thr-Phe-AzaGly-Leu-Arg(Me)-Trp-NH2] (Ac-[dY][Pro(4S-NH2)]NTF[azaGly]L[Arg(Me)]W-NH2)
1.5	CNC(=N)NCCC[C@H](NC(=O)[C@H](CC(C)C)NC(=O)NNC(=O)[C@H](Cc1ccccc1F)NC(=O)[C@@H](NC(=O)[C@H](CC(N)=O)NC(=O)[C@H](Cc1c[nH]c2ccccc12)NC(=O)[C@@H](Cc1ccc(O)cc1)NC(C)=O)[C@@H](C)O)C(=O)N[C@@H](Cc1c[nH]c2ccccc12)C(N)=O [Compound No. 764, Ac-D-Tyr-Trp-Asn-Thr-Phe(2F)-AzaGly-Leu-Arg(Me)-Trp-NH2] (Ac-[dY]WNT[Phe(2-F)][azaGly]L[Arg(Me)]W-NH2)
3.7	CNC(=N)NCCC[C@H](NC(=O)[C@H](CC(C)C)NC(=O)NNC(=O)[C@H](Cc1ccccc1)NC(=O)[C@@H](NC(=O)[C@H](CC(N)=O)NC(=O)CCCCCNC(C)=O)[C@@H](C)O)C(=O)N[C@@H](Cc1c[nH]c2ccccc12)C(N)=O [Compound No. 713, Ac-Acp-Asn-Thr-Phe-AzaGly-Leu-Arg(Me)-Trp-NH2] (Ac-[Ahx]NTF[azaGly]L[Arg(Me)]W-NH2)
2.7	CNC(=N)NCCC[C@H](NC(=O)[C@H](CC(C)C)NC(=O)NNC(=O)[C@H](Cc1cccc(F)c1)NC(=O)[C@@H](NC(=O)[C@H](CC(N)=O)NC(=O)[C@H](CCC(=O)O)NC(=O)[C@@H](Cc1ccc(O)cc1)NC(C)=O)[C@@H](C)O)C(=O)N[C@@H](Cc1c[nH]c2ccccc12)C(N)=O [Compound No. 757, Ac-D-Tyr-Glu-Asn-Thr-Phe(3F)-AzaGly-Leu-Arg(Me)-Trp-NH2] (Ac-[dY]ENT[Phe(3-F)][azaGly]L[Arg(Me)]W-NH2)
